Measured values as given in the NIST ThermoML archive (doi:10.1021/je060271a).

Settings: 323.15 K, Liquid, Vibrating tube method

CCCC(=O)OCC(COC(=O)CCC)(COC(=O)CCC)COC(=O)CCC [pentaerythritol tetrabutyrate]
Settings | mass density [kg/m3]
15786 kPa | 1036
15818 kPa | 1036
15856 kPa | 1036.1
15888 kPa | 1036
15920 kPa | 1036
15952 kPa | 1036.1
15991 kPa | 1036.1
16024 kPa | 1036.1
16057 kPa | 1036.1
16097 kPa | 1036.2
16131 kPa | 1036.3
16164 kPa | 1036.2
16204 kPa | 1036.3
16238 kPa | 1036.4
16305 kPa | 1036.3
16381 kPa | 1036.4
16759 kPa | 1036.6
16795 kPa | 1036.7
16831 kPa | 1036.7
16875 kPa | 1036.7
18410 kPa | 1037.7
18440 kPa | 1037.7
18726 kPa | 1037.9
18756 kPa | 1038
19188 kPa | 1038.2
19252 kPa | 1038.3
19278 kPa | 1038.4
19311 kPa | 1038.3
19396 kPa | 1038.4
19436 kPa | 1038.4
19469 kPa | 1038.4
19501 kPa | 1038.4
19541 kPa | 1038.4
19574 kPa | 1038.4
19608 kPa | 1038.4
19648 kPa | 1038.6
19682 kPa | 1038.6
19970 kPa | 1038.7
20047 kPa | 1038.7
20089 kPa | 1038.7
20124 kPa | 1038.7
20159 kPa | 1038.9
20202 kPa | 1038.8
20238 kPa | 1039
20546 kPa | 1039.1
20584 kPa | 1039
21551 kPa | 1039.8
21639 kPa | 1039.7
21673 kPa | 1039.9
21714 kPa | 1039.9
21749 kPa | 1039.8
21784 kPa | 1039.8
21826 kPa | 1039.9
21862 kPa | 1040
21898 kPa | 1040
21934 kPa | 1040
21976 kPa | 1040
22011 kPa | 1040
22048 kPa | 1040
22091 kPa | 1040.1
22126 kPa | 1040
22162 kPa | 1040.2
22206 kPa | 1040.1
22243 kPa | 1040.2
22279 kPa | 1040.1
22323 kPa | 1040.3
22360 kPa | 1040.1
22398 kPa | 1040.2
22443 kPa | 1040.4
22480 kPa | 1040.3
22518 kPa | 1040.3
22563 kPa | 1040.3
22602 kPa | 1040.4
23845 kPa | 1041.3
23898 kPa | 1041.2
23944 kPa | 1041.2
23987 kPa | 1041.3
24030 kPa | 1041.3
24100 kPa | 1041.4
24135 kPa | 1041.4
24290 kPa | 1041.4
24326 kPa | 1041.4
24362 kPa | 1041.4
24397 kPa | 1041.5
24789 kPa | 1041.8
24827 kPa | 1041.8
24872 kPa | 1041.9
24910 kPa | 1041.8
25317 kPa | 1042.1
25357 kPa | 1042.1
25403 kPa | 1042.2
25442 kPa | 1042.2
25481 kPa | 1042.2
25528 kPa | 1042.2
25569 kPa | 1042.3
25608 kPa | 1042.2
25656 kPa | 1042.3
25696 kPa | 1042.3
25736 kPa | 1042.3
25784 kPa | 1042.5
26584 kPa | 1042.8
27050 kPa | 1043.1
27094 kPa | 1043.1
27148 kPa | 1043.2
27193 kPa | 1043.3
27239 kPa | 1043.4
27294 kPa | 1043.3
27340 kPa | 1043.4
27386 kPa | 1043.3
27432 kPa | 1043.4
27488 kPa | 1043.4
27535 kPa | 1043.5
27876 kPa | 1043.7
27985 kPa | 1043.8
28093 kPa | 1043.7
28151 kPa | 1044
28200 kPa | 1043.9
28250 kPa | 1043.9
28409 kPa | 1044
28460 kPa | 1044.1
28519 kPa | 1044
28562 kPa | 1044.2
28628 kPa | 1044.1
28679 kPa | 1044.2
28730 kPa | 1044.2
29066 kPa | 1044.5
29135 kPa | 1044.4
29177 kPa | 1044.5
29260 kPa | 1044.5
29301 kPa | 1044.6
29338 kPa | 1044.7
29373 kPa | 1044.7
29415 kPa | 1044.7
29449 kPa | 1044.6
29492 kPa | 1044.7
29529 kPa | 1044.8
29563 kPa | 1044.8
29598 kPa | 1044.6
29642 kPa | 1044.9
29678 kPa | 1044.8
29720 kPa | 1044.9
29756 kPa | 1044.8
29793 kPa | 1044.8
29839 kPa | 1044.9
30028 kPa | 1045.1
30074 kPa | 1045.1
